Test results: PubChem BioAssay (NCI)
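Test compounds were applied to cells in 96-well plates for 48 hours at 5 doses. At the TGI there is no net growth.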

Key:
Assay in all cases: growth of human tumour cells (NCI), 48 h
[1] = test system: 786-0 renal
[2] = test system: A549 NSCLC
[3] = test system: ACHN renal
[4] = test system: BT-549 breast
[5] = test system: CAKI-1 renal
[6] = test system: CCRF-CEM leukemia
[7] = test system: COLO 205 colon
[8] = test system: DU-145 prostate
[9] = test system: EKVX NSCLC
[10] = test system: HCC-2998 colon
[11] = test system: HCT-116 colon
[12] = test system: HCT-15 colon
[13] = test system: HL-60(TB) leukemia
[14] = test system: HOP-62 NSCLC
[15] = test system: HOP-92 NSCLC
[16] = test system: HS 578T breast
[17] = test system: HT29 colon
[18] = test system: IGROV1 ovarian
[19] = test system: K-562 leukemia
[20] = test system: KM12 colon
[21] = test system: LOX IMVI melanoma
[22] = test system: M14 melanoma
[23] = test system: MALME-3M melanoma
[24] = test system: MCF7 breast
[25] = test system: MDA-MB-231 breast
[26] = test system: MDA-MB-435
[27] = test system: MDA-N
[28] = test system: MOLT-4 leukemia
[29] = test system: NCI-H226 lung
[30] = test system: NCI-H23 lung
[31] = test system: NCI-H460 lung
[32] = test system: NCI-H522 lung
[33] = test system: NCI/ADR-RES ovarian
[34] = test system: OVCAR-3 ovarian
[35] = test system: OVCAR-4 ovarian
[36] = test system: OVCAR-5 ovarian
[37] = test system: OVCAR-8 ovarian
[38] = test system: PC-3 prostate
[39] = test system: RPMI-8226 leukemia
[40] = test system: RXF 393 renal
[41] = test system: SF-268 CNS
[42] = test system: SF-295 CNS
[43] = test system: SK-MEL-2 melanoma
[44] = test system: SK-MEL-28 melanoma
[45] = test system: SK-MEL-5 melanoma
[46] = test system: SK-OV-3 ovarian
[47] = test system: SN12C renal
[48] = test system: SNB-19 CNS
[49] = test system: SNB-75 CNS
[50] = test system: SR leukemia
[51] = test system: SW-620 colon
[52] = test system: T-47D breast
[53] = test system: TK-10 renal
[54] = test system: U251 CNS
[55] = test system: UACC-257 melanoma
[56] = test system: UACC-62 melanoma
[57] = test system: UO-31 renal
[58] = test system: A498 renal
[59] = test system: SF-539 CNS

Measured: TGI

COc1ccc(CC2OC3(CCCCC3)CC3CCCCN32)cc1 (centres undefined)
not listed: [58] | [59]
> 100 µM: all other assays above

O=C(Nc1ccc(-c2cn3ccccc3n2)cc1)c1cc(Br)ccc1O
not listed: [10] | [57]
> 100 µM: all other assays above
